Data set [1] deals with cerebellar explants. The experiment in a line: Cerebellar microexplants exposed to glutamate and 3-nitropropionic acid; live neurons with neurites counted. The data set is classed as cell-based, rat. The note with it: for numbers of cells having neurites: administered simultaneously with glutamate (1 mM) and 3-nitropropionic acid (0.5 mM), final concentrations 1-100 nM, postnatal day 8 Wistar rat cerebellar microexplants; for recovery from / prevention of glutamate-induced neurotoxicity: compound applied simultaneously, 1-100 nM. The method, then:
To determine the effects of the compounds of the invention on neuronal cells in vitro, a series of studies was carried out using cerebellar explants from […]. In vitro systems are suitable for studying neuronal proliferation, neurite growth, formation of nerve bundles and effects of toxins on neural cells, effects that parallel effects observed in vivo. Thus, results of studies using in vitro cerebellar explants are predictive of effects of interventions in vivo.
In a first series of studies, effects of glutamate on cerebellar explants were determined. At physiological concentrations, glutamate is a neurotransmitter in the CNS of mammals, including humans. However, at sufficiently high concentrations, glutamate is neurotoxic, resulting in neuronal cell death. Because glutamate is a naturally occurring neurotransmitter in the CNS of mammals, including humans, and because glutamate neurotoxicity is recognized in the art as reflective of neurotoxicity in general, and including cell death and degeneration, it is a valuable tool useful for identifying and characterizing agents effective in treatment of neurodegeneration and neural cell death.
Cover slips were placed into a large Petri dish and washed in 70% alcohol for 5 minutes, then washed with Millipore H2O. The cover slips were air dried, and coated with Poly-D-Lysine (1 mg/ml stock solution in PBS, 90-100 μl) for 2 hours at 34° C.
Postnatal day 8 Wistar rats were used for the study. The rats were sacrificed and placed in ice for 1 minute, decapitated and the cerebellum removed and placed on ice. Cerebellum tissue was placed in 1 ml of 0.65% glucose-supplemented PBS (10 μl 65% stock D (+)glucose/1 ml PBS) in a large Petri dish, chopped up into smaller sections and triturated with a 1 ml insulin syringe via a 23 G (0.4 mm) needle, and then squirted back into the glucose solution in the large Petri dish. The tissue was sieved through (125 μm pore size gauze) and centrifuged (2 minutes at 60 g) twice to exchange the medium into serum-free BSA-supplemented START V medium (Biochrom, Germany). The second centrifugation step was done with 1 ml of START V medium. The microexplants were reconstituted into 500 μl of START V medium and put on ice.
Two hours after PDL-coating, the slides were washed with Millipore H2O and air dried. Each slide was placed into a small Petri dish (diameter: 35 mm) and 40 μl of START V/cell suspension was added. The tissue was incubated for 2 hours at 34° C. (settlement period). START V-medium (1 ml) was then added to the Petri dish and cultivated at 34° C. in the presence of 5% CO2 in air at 100% humidity for 48 hours.
For the study, certain explant cultures were exposed to vehicle (PBS) only. In the first study (Study 1) 10 μl of toxin 1 (L-glutamate-100 mM in Millipore water; final concentration: 1 mM) and 10 μl of toxin 2 (3-nitropropionic acid-50 mM- pH 7- in Millipore water, final concentration: 0.5 mM) was applied simultaneously with the compounds to be tested (10 mM stock solution prepared in PBS and diluted to final concentrations between 1-100 nM). […]
Neurons in the explants were then evaluated for morphology (presence of neurites) and counted as live cells per microscopic field. Four fields displaying highest cell density were counted per cover slip and the data presented as mean±standard error of the mean (SEM); n=4 each. Statistical significance was evaluated by using the non-paired Student's t-test.

For data set [2] the following is noted: rcm bond.
Data set [3] relates to rats exposed to hypoxic-ischemic injury (HI). The data set is described as follows: Hypoxic-ischemic injury (modified Levine model), histological tissue damage score. The data set is classed as in vivo, rat. The note with it: 100 pM icv, 20 μl over 20 minutes, 2 hours after hypoxic-ischemic insult; histology 5 days after injury; adult male Wistar rats; compared to vehicle treated group, p<0.001. The method, then: To determine whether compounds of the invention might prevent neuronal injury in response to stroke, cardiac arterial bypass graft surgery (CABG) or other hypoxic insults, a series of studies were carried out in rats that had been exposed to hypoxic-ischemic injury (HI). Adult rats (Wistar, 280-310 g, male) were used. The modified Levine model preparation and experimental procedures were used (Rice et al, 1981, Ann. Neurol.: 9: 131-141; Guan et al J., 1993, Cereb. Blood Flow Metab.: 13(4): 609-16). These procedures in brief, consist of an HI injury induced by unilateral carotid artery ligation followed by inhalational asphyxia in the animals with an implanted lateral ventricular cannula. A guide cannula was stereotaxically placed on the top of the dura 1.5 mm to the right of the mid-line and 7.5 mm anterior to the interaural zero plane under halothane anaesthesia. […]
Coronal sections 8 μm in thickness were cut from the striatum, cerebral cortex and hippocampus and were stained with thionin and acid fuchsin. The histological outcome was assessed at three levels: (1) the mid level of the striatum, (2) where the completed hippocampus first appeared and (3) the level where the ventral horn of the hippocampus just appears. The severity of tissue damage was scored in the striatum, cortex and the CA1-2, CA3, CA4 and dentate gyrus of the hippocampus. […]

“Also recorded” adds a separate entry of the source. Read-outs that look alike come from different tables or passages of the source.

For the compound `N[C@H]1CCCC[C@@H]2CC[C@@H](C(=O)N[C@@H](CCC(=O)O)C(=O)O)N2C1=O.O=C(O)C(F)(F)F` [compound 48, (2S, 3′S, 8′R, 11′S) 2-{[(3′-Amino-1′-aza-2′-oxobicyclo[6.3.0]-undecyl)-11′-carbonyl]amino}-1,5-pentanedioic acid trifluoroacetate salt], the “numbers of cells having neurites” value in data set [1] is given as “significantly increased the numbers of cells having neurites in a dose-dependent manner”. For the same compound, the “recovery from / prevention of glutamate-induced neurotoxicity” value in data set [1] (glutamate 1 mM, trifluoroacetate salt) was “significant recovery; also recorded: prevented glutamate-induced neurotoxicity”.

In data set [2] (from C=CC[C@@H]1CC[C@@H](C(=O)OC(C)(C)C)N1C(=O)CN(CC=C)C(=O)OCc1ccccc1, bis(tricyclohexylphosphine)benzylidineruthenium dichloride (Grubbs I), dichloromethane, 4.1 mM, 40.0 °C, 48.0 h), `CC(C)(C)OC(=O)[C@@H]1CC[C@H]2CC=CCN(C(=O)OCc3ccccc3)CC(=O)N21` came in with a ring closure, yield of all isomers of 42%. Regarding `O=C(O)[C@@H]1CCCCNCC(=O)N2CCC[C@H]2C(=O)N[C@H](C(=O)O)C1`, in data set [2] (from C=CC[C@H](C[C@H](NC(=O)[C@@H]1CCCN1C(=O)CN(CC=C)C(=O)OCc1ccccc1)C(=O)OCc1ccccc1)C(=O)OCc1ccccc1, Grubbs II generated in situ (bis(tricyclohexylphosphine)benzylideneruthenium dichloride + SIMes.HBF4/KOtBu), benzene, 2.27 mM, 45.0 °C, 65.0 h, 2 steps), the ring closure, yield of all isomers was determined as 58%.

As for `O=C(O)C(F)(F)F.O=C(O)CC[C@H](NC(=O)[C@@H]1CC[C@@H]2CCCCNCC(=O)N21)C(=O)O` [compound 68, (2S, 9′S, 12′S)-2-{[(1′,4′-Diaza-2′-oxobicyclo[7.3.0]dodecyl)-12′-carbonyl]amino}-1,5-pentanedioic acid trifluoroacetate], the “numbers of cells having neurites” value in data set [1] is on record as “significantly increased the numbers of cells having neurites in a dose-dependent manner”. Also, the “recovery from / prevention of glutamate-induced neurotoxicity” value in data set [1] (glutamate 1 mM) was “significant recovery; also recorded: prevented glutamate-induced neurotoxicity”. Further, the “tissue damage (damage score) in striatum, cortex and hippocampus” value in data set [3] is listed as “significantly reduced the tissue damage in each brain region examined”. Compound `CC(C)(C)OC(=O)[C@@H]1CC[C@@H]2CC=CCN(C(=O)OCc3ccccc3)CC(=O)N21` came in with a ring closure, yield of all isomers in data set [2] (from C=CC[C@H]1CC[C@@H](C(=O)OC(C)(C)C)N1C(=O)CN(CC=C)C(=O)OCc1ccccc1, Grubbs I (bis(tricyclohexylphosphine)benzylideneruthenium dichloride), dichloromethane, 4.03 mM, 40.0 °C, 48.0 h) of 46%. Take `N[C@@H](CCC(=O)O)C(=O)O` [Glutamate, L-glutamate, reference compound]: the “loss of cerebellar neurons having neurites” value in data set [1] (glutamate 1 mM, compared to vehicle-treated controls) is roughly 80%.

For the origin of these results see patent US8013170B2, “Substituted pyrrolo[1,2-d][1,4]-diazonines and treatment of brain damage” (priority 2003, dated 2011).
